Experimental data as given in PubChem BioAssay (NCI).
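Where inhibition never reached the appropriate level, the endpoint shown equals the highest concentration tested. Otherwise, values were interpolated linearly from a five-concentration, 48-hour dose response in 96-well plates. TGI: concentration producing complete growth inhibition.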

Legend:
Experiment in all cases: NCI tumour cell line growth inhibition, 48 h
[1] = test system: 786-0 renal
[2] = test system: A498 renal
[3] = test system: A549 NSCLC
[4] = test system: ACHN renal
[5] = test system: CAKI-1 renal
[6] = test system: CCRF-CEM leukemia
[7] = test system: COLO 205 colon
[8] = test system: DLD-1 colon
[9] = test system: DMS 114 small cell lung
[10] = test system: DMS 273 small cell lung
[11] = test system: EKVX NSCLC
[12] = test system: HCC-2998 colon
[13] = test system: HCT-116 colon
[14] = test system: HCT-15 colon
[15] = test system: HL-60(TB) leukemia
[16] = test system: HOP-18 NSCLC
[17] = test system: HOP-62 NSCLC
[18] = test system: HOP-92 NSCLC
[19] = test system: HT29 colon
[20] = test system: IGROV1 ovarian
[21] = test system: K-562 leukemia
[22] = test system: KM12 colon
[23] = test system: KM20L2 colon
[24] = test system: LOX IMVI melanoma
[25] = test system: LXFL 529 NSCLC
[26] = test system: M14 melanoma
[27] = test system: M19-MEL melanoma
[28] = test system: MALME-3M melanoma
[29] = test system: MOLT-4 leukemia
[30] = test system: NCI-H226 lung
[31] = test system: NCI-H23 lung
[32] = test system: NCI-H460 lung
[33] = test system: NCI-H522 lung
[34] = test system: OVCAR-3 ovarian
[35] = test system: OVCAR-4 ovarian
[36] = test system: OVCAR-5 ovarian
[37] = test system: OVCAR-8 ovarian
[38] = test system: RXF 393 renal
[39] = test system: SF-268 CNS
[40] = test system: SF-295 CNS
[41] = test system: SF-539 CNS
[42] = test system: SK-MEL-28 melanoma
[43] = test system: SK-MEL-5 melanoma
[44] = test system: SN12C renal
[45] = test system: SNB-19 CNS
[46] = test system: SNB-75 CNS
[47] = test system: SNB-78 CNS
[48] = test system: SR leukemia
[49] = test system: SW-620 colon
[50] = test system: TK-10 renal
[51] = test system: U251 CNS
[52] = test system: UACC-257 melanoma
[53] = test system: UACC-62 melanoma
[54] = test system: UO-31 renal
[55] = test system: SK-MEL-2 melanoma
[56] = test system: SK-OV-3 ovarian

## NC(CCSCC(F)(F)F)C(=O)O (centres undefined)
[1]
  TGI: > 100 µM
[2]
  TGI: > 100 µM
[3]
  TGI: > 100 µM
[4]
  TGI: > 100 µM
[5]
  TGI: > 100 µM
[6]
  TGI: > 100 µM
[7]
  TGI: > 100 µM
[8]
  TGI: > 100 µM
[9]
  TGI: > 100 µM
[10]
  TGI: > 100 µM
[11]
  TGI: > 100 µM
[12]
  TGI: > 100 µM
[13]
  TGI: > 100 µM
[14]
  TGI: > 100 µM
[15]
  TGI: > 100 µM
[16]
  TGI: > 100 µM
[17]
  TGI: > 100 µM
[18]
  TGI: > 100 µM
[19]
  TGI: > 100 µM
[20]
  TGI: > 100 µM
[21]
  TGI: > 100 µM
[22]
  TGI: > 100 µM
[23]
  TGI: > 100 µM
[24]
  TGI: > 100 µM
[25]
  TGI: > 100 µM
[26]
  TGI: > 100 µM
[27]
  TGI: > 100 µM
[28]
  TGI: > 100 µM
[29]
  TGI: > 100 µM
[30]
  TGI: > 100 µM
[31]
  TGI: > 100 µM
[32]
  TGI: > 100 µM
[33]
  TGI: > 100 µM
[34]
  TGI: > 100 µM
[35]
  TGI: > 100 µM
[36]
  TGI: > 100 µM
[37]
  TGI: > 100 µM
[38]
  TGI: > 100 µM
[39]
  TGI: > 100 µM
[40]
  TGI: > 100 µM
[41]
  TGI: > 100 µM
[42]
  TGI: > 100 µM
[43]
  TGI: > 100 µM
[44]
  TGI: > 100 µM
[45]
  TGI: > 100 µM
[46]
  TGI: > 100 µM
[47]
  TGI: > 100 µM
[48]
  TGI: > 100 µM
[49]
  TGI: > 100 µM
[50]
  TGI: > 100 µM
[51]
  TGI: > 100 µM
[52]
  TGI: > 100 µM
[53]
  TGI: > 100 µM
[54]
  TGI: > 100 µM

## O=C(Nc1ccccc1[N+](=O)[O-])/C(=N/Nc1cccc(Cl)c1)c1c(O)c2ccccc2oc1=O
[1]
  TGI: > 100 µM
[2]
  TGI: > 100 µM
[3]
  TGI: > 100 µM
[4]
  TGI: > 100 µM
[5]
  TGI: > 100 µM
[6]
  TGI: 87.5 µM
[7]
  TGI: 47.6 µM
[8]
  TGI: > 100 µM
[9]
  TGI: 53.8 µM
[10]
  TGI: > 100 µM
[11]
  TGI: > 100 µM
[12]
  TGI: > 100 µM
[13]
  TGI: 53.6 µM
[14]
  TGI: > 100 µM
[16]
  TGI: > 100 µM
[18]
  TGI: 96.5 µM
[19]
  TGI: > 100 µM
[20]
  TGI: > 100 µM
[21]
  TGI: > 100 µM
[22]
  TGI: > 100 µM
[23]
  TGI: > 100 µM
[24]
  TGI: > 100 µM
[25]
  TGI: > 100 µM
[26]
  TGI: > 100 µM
[27]
  TGI: > 100 µM
[28]
  TGI: > 100 µM
[29]
  TGI: > 100 µM
[30]
  TGI: > 100 µM
[31]
  TGI: > 100 µM
[32]
  TGI: > 100 µM
[33]
  TGI: > 100 µM
[34]
  TGI: > 100 µM
[35]
  TGI: > 100 µM
[36]
  TGI: > 100 µM
[38]
  TGI: > 100 µM
[39]
  TGI: > 100 µM
[40]
  TGI: > 100 µM
[41]
  TGI: > 100 µM
[55]
  TGI: > 100 µM
[42]
  TGI: > 100 µM
[43]
  TGI: > 100 µM
[56]
  TGI: > 100 µM
[45]
  TGI: > 100 µM
[46]
  TGI: > 100 µM
[48]
  TGI: 2.67 µM
[49]
  TGI: > 100 µM
[50]
  TGI: > 100 µM
[52]
  TGI: > 100 µM
[53]
  TGI: > 100 µM
[54]
  TGI: > 100 µM
